According to US10167262B2, “Herbicidal substituted 3-arylpyrazoles” (FMC CORPORATION, priority 2014, dated 2019):

Legend:
Experiment in all cases: Test E pre-/postemergence greenhouse test, plant response rating 0-100
Type in all cases: in vivo
[1] = test system: barnyardgrass (Echinochloa crus-galli); settings: Preemergence, scale 0 to 100
Summary of the method: (§1)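 Seeds sown in silt loam were treated preemergence, and seedlings in peat-based potting medium were treated postemergence at the 1- to 4-leaf stage (2-18 cm tall). Test chemicals were formulated in a non-phytotoxic solvent mixture with surfactant. After 14-21 days in the greenhouse, injury was rated visually against untreated controls (0 = no effect, 100 = complete control).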

corn (Zea mays) = settings: Preemergence, scale 0 to 100
Summary of the method: as §1

[2] = test system: Brazilian crabgrass (Digitaria horizontalis); settings: Preemergence, scale 0 to 100
Summary of the method: as §1

[3] = test system: dayflower (Virginia (VA) dayflower, Commelina virginica); settings: Preemergence, scale 0 to 100
Summary of the method: as §1

soybean (Glycine max) = settings: Preemergence, scale 0 to 100
Summary of the method: as §1

[4] = test system: waterhemp (common waterhemp, Amaranthus rudis); settings: scale 0 to 100; for Waterhemp plant response rating: Preemergence
Summary of the method: as §1

[5] = test system: field bindweed (Convolvulus arvensis); settings: Preemergence, scale 0 to 100
Summary of the method: as §1

[6] = test system: fall panicum (Panicum dichotomiflorum); settings: Preemergence, scale 0 to 100
Summary of the method: as §1

[7] = test system: Italian ryegrass (Lolium multiflorum); settings: Preemergence, scale 0 to 100
Summary of the method: as §1

[8] = test system: hairy beggarticks (Bidens pilosa); settings: scale 0 to 100; for Beggarticks plant response rating: Preemergence
Summary of the method: as §1

[9] = test system: sandbur (southern sandbur, Cenchrus echinatus); settings: Preemergence, scale 0 to 100
Summary of the method: as §1

[10] = test system: wild poinsettia (Euphorbia heterophylla); settings: Preemergence, scale 0 to 100
Summary of the method: as §1

For `CCn1cc(C(=O)c2ccccc2)c(-c2cc(Cl)cc(Cl)c2)n1` [Compound 31, [3-(3,5-dichlorophenyl)-1-ethyl-1H-pyrazol-4-yl]phenylmethanone], the “Barnyardgrass plant response rating” value ([1]; 62 g ai/ha) was 0, the “Barnyardgrass plant response rating” value ([1]; 125 g ai/ha) was 0 and the “Barnyardgrass plant response rating” value ([1]; 250 g ai/ha) was 0. The “Barnyardgrass plant response rating” value ([1]; 500 g ai/ha) was 0, the “Corn plant response rating” value (corn (Zea mays); 62 g ai/ha) was 0 and the “Corn plant response rating” value (corn (Zea mays); 125 g ai/ha) was 0. The “Corn plant response rating” value (corn (Zea mays); 250 g ai/ha) was 0, the “Corn plant response rating” value (corn (Zea mays); 500 g ai/ha) was 0 and the “Crabgrass, Brazil plant response rating” value ([2]; 62 g ai/ha) was 0. The “Crabgrass, Brazil plant response rating” value ([2]; 125 g ai/ha) was 0, the “Crabgrass, Brazil plant response rating” value ([2]; 250 g ai/ha) was 0 and the “Crabgrass, Brazil plant response rating” value ([2]; 500 g ai/ha) was 50. The “Dayflower, VA plant response rating” value ([3]; 62 g ai/ha) was 0, the “Dayflower, VA plant response rating” value ([3]; 125 g ai/ha) was 0 and the “Dayflower, VA plant response rating” value ([3]; 250 g ai/ha) was 0. The “Dayflower, VA plant response rating” value ([3]; 500 g ai/ha) was 0, the “Soybean plant response rating” value (soybean (Glycine max); 62 g ai/ha) was 0 and the “Soybean plant response rating” value (soybean (Glycine max); 125 g ai/ha) was 0. The “Soybean plant response rating” value (soybean (Glycine max); 250 g ai/ha) was 0, the “Soybean plant response rating” value (soybean (Glycine max); 500 g ai/ha) was 0 and the pest or weed control at 31 g/ha ([4]; Amaranthus tuberculatus, post-emergence, Postemergence, 31 g ai/ha) was 50%. The pest or weed control at 125 g/ha ([4]; Amaranthus tuberculatus, post-emergence, Postemergence, 125 g ai/ha) was 60%, the “Waterhemp plant response rating” value ([4]; 62 g ai/ha) was 80 and the “Waterhemp plant response rating” value ([4]; 125 g ai/ha) was 90. For the same molecule, the “Waterhemp plant response rating” value ([4]; 250 g ai/ha) was 100, the “Waterhemp plant response rating” value ([4]; 500 g ai/ha) was 100 and the “Field Bindweed plant response rating” value ([5]; 62 g ai/ha) was 0. For the same molecule, the “Field Bindweed plant response rating” value ([5]; 125 g ai/ha) was 0, the “Field Bindweed plant response rating” value ([5]; 250 g ai/ha) was 0 and the “Field Bindweed plant response rating” value ([5]; 500 g ai/ha) was 0. For the same molecule, the “Panicum, Fall plant response rating” value ([6]; 62 g ai/ha) was 0, the “Panicum, Fall plant response rating” value ([6]; 125 g ai/ha) was 0 and the “Ryegrass, Italian plant response rating” value ([7]; 62 g ai/ha) was 0. The “Ryegrass, Italian plant response rating” value ([7]; 125 g ai/ha) was 0, the “Ryegrass, Italian plant response rating” value ([7]; 250 g ai/ha) was 0 and the “Ryegrass, Italian plant response rating” value ([7]; 500 g ai/ha) was 0. It also gave a pest or weed control at 16 g/ha ([8]; Bidens pilosa, post-emergence, Postemergence, 16 g ai/ha) of 70%, a pest or weed control at 31 g/ha ([8]; Bidens pilosa, post-emergence, Postemergence, 31 g ai/ha) of 80% and a pest or weed control at 62 g/ha ([8]; Bidens pilosa, post-emergence, Postemergence, 62 g ai/ha) of 85%. For the same molecule, the pest or weed control at 125 g/ha ([8]; Bidens pilosa, post-emergence, Postemergence, 125 g ai/ha) was 85%, the “Beggarticks plant response rating” value ([8]; 62 g ai/ha) was 0 and the “Beggarticks plant response rating” value ([8]; 125 g ai/ha) was 0. For the same molecule, the “Beggarticks plant response rating” value ([8]; 250 g ai/ha) was 0, the “Beggarticks plant response rating” value ([8]; 500 g ai/ha) was 50 and the “Sandbur plant response rating” value ([9]; 62 g ai/ha) was 0. The “Sandbur plant response rating” value ([9]; 125 g ai/ha) was 0, the “Sandbur plant response rating” value ([9]; 250 g ai/ha) was 0 and the “Sandbur plant response rating” value ([9]; 500 g ai/ha) was 0. For the same molecule, the “Poinsettia, Wild plant response rating” value ([10]; 62 g ai/ha) was 0, the “Poinsettia, Wild plant response rating” value ([10]; 125 g ai/ha) was 0 and the “Poinsettia, Wild plant response rating” value ([10]; 250 g ai/ha) was 0. The “Poinsettia, Wild plant response rating” value ([10]; 500 g ai/ha) was 0.
